Structures are written as SMILES.

Results on 1 molecule are retold here after ChEMBL document CHEMBL4390652, “Design, biological evaluation and X-ray crystallography of nanomolar multifunctional ligands targeting simultaneously acetylcholinesterase and glycogen synthase kinase-3” (Eur J Med Chem, 2019).

Test [1] addresses Tyrosine-protein kinase receptor UFO (Homo sapiens) (UniProt P30530). Put plainly: Binding affinity to wild-type human partial length AXL (R497 to Y821 residues) expressed in bacterial expression system assessed as residual binding level at 10 uM by Kinomescan method relative to control.
For test [2], the target named is Cyclin-dependent kinase 8 (Homo sapiens) (UniProt P49336). As to the kind of experiment: Binding affinity to wild-type human partial length CDK8 (M1 to T360 residues) expressed in bacterial expression system assessed as residual binding level at 10 uM by Kinomescan method relative to control.
The target of test [3] is Dual specificity tyrosine-phosphorylation-regulated kinase 1B (Homo sapiens) (UniProt Q9Y463). As to the kind of experiment: Binding affinity to wild-type human full length DYRK1B (M1 to S629 residues) expressed in bacterial expression system assessed as residual binding level at 10 uM by Kinomescan method relative to control.
The subject of test [4] is Epidermal growth factor receptor (Homo sapiens), P00533 [T790M]. Put plainly: Binding affinity to human partial length EGFR T790M mutant (R669 to G1022 residues) expressed in mammalian expression system assessed as residual binding level at 10 uM by Kinomescan method relative to control.
Test [5] deals with Fibroblast growth factor receptor 2 (Homo sapiens) (UniProt P21802). As to the kind of experiment: Binding affinity to wild-type human partial length FGFR2 (D457 to E769 residues) expressed in bacterial expression system assessed as residual binding level at 10 uM by Kinomescan method relative to control.
The target of test [6] is Receptor-type tyrosine-protein kinase FLT3 (Homo sapiens) (UniProt P36888). As to the kind of experiment: Binding affinity to wild-type human partial length FLT3 (V592 to Y969 residues) expressed in bacterial expression system assessed as residual binding level at 10 uM by Kinomescan method relative to control.
For test [7], the system named is Receptor-type tyrosine-protein kinase FLT3 (Homo sapiens), P36888 [D835H]. As to the kind of experiment: Binding affinity to human partial length FLT3 D835H mutant (V592 to Y969 residues) expressed in bacterial expression system assessed as residual binding level at 10 uM by Kinomescan method relative to control.
The subject of test [8] is Receptor-type tyrosine-protein kinase FLT3 (Homo sapiens), P36888 [UNDEFINED MUTATION]. Put plainly: Binding affinity to human partial length FLT3 ITD/D835V double mutant expressed in bacterial expression system assessed as residual binding level at 10 uM by Kinomescan method relative to control.
The subject of test [9] is Receptor-type tyrosine-protein kinase FLT3 (Homo sapiens), P36888 [K663Q]. Put plainly: Binding affinity to human partial length FLT3 K663Q mutant (V592 to Y969 residues) expressed in bacterial expression system assessed as residual binding level at 10 uM by Kinomescan method relative to control.
The target in test [10] is Homeodomain-interacting protein kinase 4 (Homo sapiens) (UniProt Q8NE63). As to the kind of experiment: Binding affinity to wild-type human partial length HIPK4 (M1 to V384 residues) expressed in bacterial expression system assessed as residual binding level at 10 uM by Kinomescan method relative to control.
For test [11], the target named is Interleukin-1 receptor-associated kinase 1 (Homo sapiens) (UniProt P51617). As to the kind of experiment: Binding affinity to wild-type human partial length IRAK1 (R194 to S712 residues) expressed in mammalian expression system assessed as residual binding level at 10 uM by Kinomescan method relative to control.
Test [12] has as its system Mast/stem cell growth factor receptor Kit (Homo sapiens), P10721 [L576P]. Put plainly: Binding affinity to human partial length KIT L576P mutant (Y545 to D952 residues) expressed in bacterial expression system assessed as residual binding level at 10 uM by Kinomescan method relative to control.
Test [13] concerns the target Mitogen-activated protein kinase kinase kinase kinase 2 (Homo sapiens) (UniProt Q12851). Put plainly: Binding affinity to wild-type human partial length MAP4K2 (M1 to G318 residues) expressed in mammalian expression system assessed as residual binding level at 10 uM by Kinomescan method relative to control.
The target of test [14] is MAP kinase-activated protein kinase 2 (Homo sapiens) (UniProt P49137). As to the kind of experiment: Binding affinity to wild-type human partial length MAPKAPK2 (V48 to D345 residues) expressed in bacterial expression system assessed as residual binding level at 10 uM by Kinomescan method relative to control.
Test [15] deals with Misshapen-like kinase 1 (Homo sapiens) (UniProt Q8N4C8). As to the kind of experiment: Binding affinity to wild-type human partial length MINK (M1 to K312 residues) expressed in mammalian expression system assessed as residual binding level at 10 uM by Kinomescan method relative to control.
Test [16] concerns the target Macrophage-stimulating protein receptor (Homo sapiens) (UniProt Q04912). As to the kind of experiment: Binding affinity to wild-type human partial length MST1R (I1057 to L1363 residues) expressed in bacterial expression system assessed as residual binding level at 10 uM by Kinomescan method relative to control.
Test [17] has as its target Serine/threonine-protein kinase OSR1 (Homo sapiens) (UniProt O95747). As to the kind of experiment: Binding affinity to wild-type human full length OSR1 (M1 to S527 residues) expressed in mammalian expression system assessed as residual binding level at 10 uM by Kinomescan method relative to control.
Test [18] concerns the target Platelet-derived growth factor receptor beta (Homo sapiens) (UniProt P09619). As to the kind of experiment: Binding affinity to wild-type human partial length PDGFRB (V582 to Y1009 residues) expressed in bacterial expression system assessed as residual binding level at 10 uM by Kinomescan method relative to control.
Test [19] concerns the target Serine/threonine-protein kinase pim-1 (Homo sapiens) (UniProt P11309). As to the kind of experiment: Binding affinity to wild-type human partial length PIM1 (A15 to K313 residues) expressed in bacterial expression system assessed as residual binding level at 10 uM by Kinomescan method relative to control.
Test [20] addresses Serine/threonine-protein kinase pim-2 (Homo sapiens) (UniProt Q9P1W9). Put plainly: Binding affinity to wild-type human partial length PIM2 (M1 to E291 residues) expressed in bacterial expression system assessed as residual binding level at 10 uM by Kinomescan method relative to control.
Test [21] concerns the target Interferon-induced, double-stranded RNA-activated protein kinase (Homo sapiens) (UniProt P19525). Put plainly: Binding affinity to wild-type human partial length PRKR (F247 to C551 residues) expressed in bacterial expression system assessed as residual binding level at 10 uM by Kinomescan method relative to control.
Test [22] addresses Ribosomal protein S6 kinase alpha-3 (Homo sapiens) (UniProt P51812). As to the kind of experiment: Binding affinity to wild-type human partial length N-terminal RSK2 kinase domain 1 (M1 to D394 residues) expressed in mammalian expression system assessed as residual binding level at 10 uM by Kinomescan method relative to control.
Test [23] deals with Serine/threonine-protein kinase TAO2 (Homo sapiens) (UniProt Q9UL54). Put plainly: Binding affinity to wild-type human partial length TAOK2 (M1 to A320 residues) expressed in mammalian expression system assessed as residual binding level at 10 uM by Kinomescan method relative to control.
For test [24], the target named is Testis-specific serine/threonine-protein kinase 1 (Homo sapiens) (UniProt Q9BXA7). As to the kind of experiment: Binding affinity to wild-type human full length TSSK1B (M1 to Q367 residues) expressed in bacterial expression system assessed as residual binding level at 10 uM by Kinomescan method relative to control.

With `O=C(Nc1cc(-c2cn(CCNc3c4c(nc5ccccc35)CCCC4)nn2)ccn1)Nc1cccc2c1C1CCCCN1C2=O` (racemic), the Activity is 5.5% in test [1]; 64% in test [2]; 3.7% in [3]; 70% in [4]; 21% in test [5]; 0.55% in [6]. Moreover, the Activity is 3.4% in [7]; 0.23% in [8]; 0.8% in test [9]; 84% in test [10]; 8.7% in test [11]; 0% in test [12]. The Activity in test [13] was found to be 9.2%; in test [14] it was 100%; in test [15], 28%; in [16], 89%; in test [17], 100%; in test [18], 2.3%. For the same molecule, the Activity came to 25% in [19]; 16% in [20]; 45% in test [21]; 1.7% in test [22]; 56% in test [23]; 47% in test [24].
